Experiments:
Assay type in all cases: in vivo
[1] = system: neutrophils and eosinophils introduced into the airway; test: Inflammatory cells (neutrophils and eosinophils) in bronchoalveolar lavage fluid, Diff-Quik staining, asthma-induced mice
Experimental: (§1) Eight-week-old female […] mice (Orient Bio Korea Inc., Korea) having no certain pathogen were accommodated in an aseptic laminar-flow cabinet, and bred by supplying a standard solid feed ad libitum. When the following experiment was performed, the mice were made to correspond to 7- to 8-weeks old, and all laboratory animals were managed according to the protocol approved by the Institutional Animal Care and Use Committee of the Chonbuk National University Medical School.
(§2) Also, on days 21 and 28 from the experimental starting date, the mice were put into a plastic box (Plexiglas (Rohm & Haas, Philadelphia, Pa.) exposure chamber; 24.5 cm×40.5 cm×15.0 cm), and 1.5% ovalbumin was evaporated using an ultrasonic nebulizer (NE-U12; output 0.8 mL/min; Omron, Japan), and injected into the box for 30 minutes so that the mice inhaled the evaporated ovalbumin (secondary challenge).
(§3) After the mice were anesthetized, a thin tube was inserted into the airway, and a piston process was repeated using a syringe filled with 0.2 mL of physiological saline to obtain a bronchoalveolar lavage fluid. The bronchoalveolar lavage fluid obtained through this piston process was stored at −70° C. when it was not immediately used in the experiments.
50 μL of the bronchoalveolar lavage fluid obtained in Experimental Method 2 was put on a slide used for the cytospin, and centrifuged for 30 minutes. Thereafter, Diff-Quik staining was performed, and inflammatory cells (neutrophils and eosinophils) were observed using a microscope.
Preparation Example 3 (α,δ-NA-L-G) or α,δ N-acetyl-D-glutamine (α,δ-NA-D-G) was orally administered to the asthma-induced mice of Experimental Method 1 daily from the experimental starting date at a concentration of 50, 100, or 200 μg/kg/day, and the cell numbers of neutrophils and eosinophils introduced into the airway through the method of Experimental Method 3 were measured. The results are shown in A and B of FIG. 3. In this case, the cell numbers were measured at 10 hours (neutrophils) or 48 hours (eosinophils) after a secondary challenge.

[2] = system: NF-κB and TNF-α; test: NF-κB (Western blot) and TNF-α (ELISA) in asthma-induced mice
Experimental: as §2
(§4) A level of cytokines in the bronchoalveolar lavage fluid obtained in Experimental Method 2 was measured using an ELISA kit. Here, ELISA kits specifically manufactured for TNF-α, IL-4, IL-5, and IL-13 were used.
A tissue was extracted from each of the mice manufactured in Experimental Method 1, and finely ground to a cell level. Thereafter, the cells were lysed in a cell lysis buffer containing a protease inhibitor to obtain a cell lysate. The cell lysate was centrifuged to obtain protein. Then, an equivalent amount of the proteins obtained from the cells were loaded on an SDS-PAGE gel and electrophoresed. The proteins present in the electrophoresed gel were transferred to a PVDF membrane. The PVDF membrane was washed, and added to a blocking buffer in which 5% skim milk was included in a TBS-T buffer, and incubated at room temperature. Then, the PVDF membrane was incubated at room temperature with an antibody diluted 1:1,000 in a TBS-T buffer containing 3% BSA. Then, the PVDF membrane was washed with a TBS-T buffer, and incubated at room temperature for an hour with a dilute solution containing HRP-bound IgG. The PVDF membrane was washed three times with a TBS-T buffer, and visualized and quantified using an ECL Western blotting detection reagent.
Here, antibodies specific to elastin, caspase-3, collagen, MKP-1, p-cPLA, p-p38, NF-κB(p65), CK2α, GAPDH, or β-actin were used in the Western blot.
(§5) Specifically, the secondary challenge (ovalbumin injection) was performed according to the method described above in Experimental Method 1, and the lungs were extracted after an hour, and then measured according to the method described above in Experimental Method 7. The results are shown in A of FIG. 9. Also, the level of TNF-α corresponding to an NK-κB-dependent cytokine was measured by ELISA according to the method described above in Experimental Method 4. The results are shown in B of FIG. 9. […]
as §5, with “The” for “Specifically, the”, “30 or 60 minutes,” for “an hour,”, “The results are shown in A of FIG. 9.” left out, “4.” for “4. The results are shown in B of FIG. 9.”

[3] = system: IL-4, IL-5, and IL-13; test: Cytokines in bronchoalveolar lavage fluid by ELISA, asthma-induced mice
Experimental: as §1, §2, §3, §4
Preparation Example 3 (α,δ-NA-L-G) or α,δ N-acetyl-D-glutamine was orally administered to the asthma-induced mice of Experimental Method 1 at a concentration of 100, 200, 400 or 800 μg/kg/day 30 minutes before a secondary airway challenge, and levels of IL-4, IL-5, and IL-13 were measured through the method described above in Experimental Method 4 24 hours after the secondary challenge. The results are shown in A and B of FIG. 4.

[4] = system: asthma-induced mice; test: Lung tissue staining, degree of inflammation (grades 0 to 3), asthma-induced mice; settings: for inflammation score (lung tissue, grades 0 to 3): asthma-induced mice, 48 hours after secondary challenge, OVA group score 3, FIG. 6
Experimental: as §1, §2
A tissue was extracted from each of the mice manufactured in Experimental Method 1, and put into a 10% formalin solution, and reacted for 24 hours to prepare a paraffin block. Thereafter, the paraffin block was microtomed into slices with a size of 3 μm, and each of the slices was attached onto a slide, and heamatoxylin-eosin IHE staining was performed. Then, the slices were observed using a microscope. Here, the degree of inflammation was determined by indicating degrees of inflammation around the airway and blood vessels as grades 0 to 3.
0: There are no inflammatory cells;
1: Inflammatory cells are occasionally observed around the airway and blood vessels;
2: Most of the airway and blood vessels are surrounded by approximately 1 to 5 thin bands of inflammatory cells; and
3: Most of the airway and blood vessels are surrounded by thick bands of inflammatory cells (5 or more).
Preparation Example 3 (α,δ-NA-L-G) was orally administered to the asthma-induced mice of Experimental Method 1 at a concentration of 200 or 400 μg/kg/day 30 minutes before a secondary challenge, and the lung tissue was stained using the method described above in Experimental Method 6 48 hours after the secondary challenge, and the inflammation score was measured. The results are shown in A and B of FIG. 6.

## CC(=O)NC(=O)CC[C@H](NC(C)=O)C(=O)O [Preparation Example 3, 2,5-diacetamido-5-oxopentanoic acid]
[1]; asthma-induced mice, oral daily 50, 100 or 200 μg/kg/day, neutrophils 10 hours, eosinophils 48 hours after secondary challenge, FIG. 3
  inflow of the neutrophils and eosinophils into the airway: very effectively inhibited
[1]; asthma-induced mice, oral daily, from a concentration of 50 μg/kg/day, FIG. 3A
  inhibition of neutrophils, compared to the eosinophils: very effectively inhibited the neutrophils
[1]; experiment [5-6], together with siRNA specific to MKP-1, FIG. 12
  cell numbers of the neutrophils and eosinophils: increased
[1]; experiment [5-6], without MKP-1 siRNA, FIG. 12
  cell numbers of neutrophils and eosinophils: decreased
[2]; 400 μg/kg/day with siRNA specific to MKP-1, FIG. 9
  effect for reducing the levels of NF-κB and TNF-α: not observed
[2]; oral daily 400 μg/kg/day, an hour after secondary challenge, FIG. 9A and B
  levels of NF-κB and TNF-α: decreased
[3]; asthma-induced mice, oral 200 μg/kg/day 30 minutes before secondary challenge, measured 24 hours after, FIG. 4A
  levels of IL-4, IL-5, and IL-13: remarkably inhibited
[3]; experiment [5-6], together with siRNA specific to MKP-1, FIG. 13
  expression levels of the cytokines: increased
[3]; experiment [5-6], without MKP-1 siRNA, FIG. 13
  expression levels of the cytokines (IL-4, IL-5, and IL-13): decreased
[4]; oral 200 μg/kg/day
  inflammation score (lung tissue, grades 0 to 3): 2
[4]; oral 400 μg/kg/day
  inflammation score (lung tissue, grades 0 to 3): 1
[4]; experiment [5-6], together with siRNA specific to MKP-1, FIG. 15
  inflammation-relieving effect (lung tissue): disappeared
[4]; experiment [5-6], without MKP-1 siRNA, FIG. 15
  degree of inflammation in the lung tissue: inhibited

From patent US20230026277A1, “COMPOSITION FOR PREVENTION, ALLEVIATION, OR TREATMENT OF RESPIRATORY DISEASE” (MICROX CO., LTD., priority 2019, published 2023)
